Series [1] can be described thus: Solubility in 20% propylene glycol. The format is physicochemical. The method, then: The compounds were also tested for solubility in 20% propylene glycol and in water, as follows. Compounds (dry powder) were dissolved in 20% propylene glycol at a concentration of 1 mM at a temperature of 40° C. with occasional vortexing. After 30 min, the solution was centrifuged at 10,000×g for 5 min. Serial dilutions of the cleared supernatant were prepared and used to measure the compound concentrations through OD reading, relative to 1 μM standard solution of the same compound. The results of the measurement were expressed as % solubility of the compound at 1 mM in 20% propylene glycol. To determine water solubility, the compounds (dry powder) were initially dissolved in water at a concentration of 100 mM at a temperature of 40° C. with occasional vortexing. After 30 min, the solution was centrifuged at 10,000×g for 5 min, and the formation of an insoluble pellet was monitored. At subsequent steps, the compound was attempted to be dissolved at lower concentrations, until no pellet was observed after centrifugation, indicating complete solution of the compound.

Series [2] deals with CDK19 (Homo sapiens, UniProt Q9BWU1). Nature of the series: KinomeScan ATP pocket binding inhibition, CDK19. Conditions: 2,000 nM. An excerpt: (16) The results of this analysis are presented in FIGS. 6A-B in the form of an evolutionary dendrogram of the kinase family, where kinase inhibition is represented by red circles, the size of which represents the magnitude of the inhibition.

Series [3] deals with A549 human lung xenograft tumors. The series is described as follows: Pretreatment before A549 xenograft injection. Conditions: 5 daily i.p. 40 mg/kg before s.c. A549 injection; p<0.007 on days 21 and 24. The format is in vivo, CB-17 SCID mice. The method, then:
Mice were then injected s.c. with 1×10^6 cells of human A549 lung cancer cell line; the tumor cells were injected in the afternoon of the same day when the last dose of treatment was administered in the morning. Starting from day 7 after tumor injection, mice were monitored for tumor formation twice a week, with 3-4 day intervals, until day 24 after tumor injection; tumor volumes were calculated via caliper measurements. By the end of the study, all the mice in both groups developed measurable tumors. […] Each point represents mean and standard deviation of tumor volume within a group of 10 mice.

In series [4] the test system is MDA-MB-468. Nature of the series: Breast carcinoma cell growth, MTT, MDA-MB-468. The format is cell-based. Conditions: five days.
In series [5] the test system is 4T1. Nature of the series: Breast carcinoma cell growth, MTT, 4T1. Type of series: cell-based. Conditions: five days.

From patent US9321737B2, “CDK8-CDK19 selective inhibitors and their use in anti-metastatic and chemopreventative methods for cancer” (SENEX BIOTECHNOLOGY INC, priority 2012, dated 2016) come the findings set out here.

Sequence of CDK19 (Q9BWU1 whole entry): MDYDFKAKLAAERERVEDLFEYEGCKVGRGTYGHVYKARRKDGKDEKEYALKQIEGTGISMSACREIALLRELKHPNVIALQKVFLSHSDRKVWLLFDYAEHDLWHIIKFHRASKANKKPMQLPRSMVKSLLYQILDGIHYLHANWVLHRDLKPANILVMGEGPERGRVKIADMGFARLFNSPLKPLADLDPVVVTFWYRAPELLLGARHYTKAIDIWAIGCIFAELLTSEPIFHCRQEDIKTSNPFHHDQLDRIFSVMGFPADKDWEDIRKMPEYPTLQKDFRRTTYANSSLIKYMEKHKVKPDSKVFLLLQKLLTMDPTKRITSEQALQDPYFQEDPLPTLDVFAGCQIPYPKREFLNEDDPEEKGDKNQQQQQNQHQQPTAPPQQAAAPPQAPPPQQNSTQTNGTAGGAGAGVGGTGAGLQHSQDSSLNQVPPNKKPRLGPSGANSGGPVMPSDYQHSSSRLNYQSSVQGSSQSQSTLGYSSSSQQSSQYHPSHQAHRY

For the compound `CN1CCN(C(=O)c2ccc3cc(CCNc4ncnc5ccc(C#N)cc45)ccc3c2)CC1` [SNX2-1-165], the “% solubility at 1 mM in 20% propylene glycol” value in series [1] (1 mM, 40° C., 30 min, centrifuged, OD reading) is recorded as 100%. Further, in series [1] (at 1 mM), the “solubility in 20% propylene glycol” value was “fully soluble”. In addition, the “% inhibition of CDK19” value in series [2] is 98.6%. The “tumor growth (tumor volume) after pretreatment” value in series [3] was “significantly slower tumor growth”. For the same compound, the “growth inhibition, MDA-MB-468” value in series [4] was “dose-dependent growth inhibition”. Besides, in series [5], the “growth inhibition, 4T1” value is “not inhibited except for the highest concentrations”.
